From patent US20260317319A1, “NOVEL ERGOLINES AND METHODS OF TREATING MOOD DISORDERS” (Gilgamesh Pharma Inc., priority 2023, published 2026)
Entries after “also recorded” stand apart in the source; their conditions may differ.

Experiments:
[1] = target: T1, Alpha1A adrenergic receptor (Homo sapiens, UniProt P35348); test: Ca2+ flux functional assay at Alpha1A; type: cell-based; conditions: for Emax: agonist, Ca2+ flux, max dose, read-out: Alpha 1A % Act @ Max Dose; for maximal efficacy at Alpha1A: "higher" is compared to the N-methyl compound LSD
T1 construct: expressed in transfected cells
T1 sequence (P35348 1-466): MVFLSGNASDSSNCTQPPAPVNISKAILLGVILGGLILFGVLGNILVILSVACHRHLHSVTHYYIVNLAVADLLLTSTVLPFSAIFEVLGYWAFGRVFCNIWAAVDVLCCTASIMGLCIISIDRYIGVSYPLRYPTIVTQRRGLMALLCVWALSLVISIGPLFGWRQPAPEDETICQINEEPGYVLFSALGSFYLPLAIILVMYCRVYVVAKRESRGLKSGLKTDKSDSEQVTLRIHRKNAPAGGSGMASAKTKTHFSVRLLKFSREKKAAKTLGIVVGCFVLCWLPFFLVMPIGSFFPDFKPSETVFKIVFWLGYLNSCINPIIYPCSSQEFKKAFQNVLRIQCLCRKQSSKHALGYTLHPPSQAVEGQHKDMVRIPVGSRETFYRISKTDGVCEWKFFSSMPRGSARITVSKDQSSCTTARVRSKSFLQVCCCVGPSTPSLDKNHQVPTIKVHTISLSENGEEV
Procedure: (§1) Disclosed compounds were tested for agonist activity at several adrenergic (Alpha1A and Alpha2A) and dopamine (D1 and D2) receptor subtypes using Ca^2+ flux functional assays, with the results summarized in Table 6. Selectivity for the 5-HT2A receptor over these other targets varied depending on the specific target and compound.
(§2) Functional Assays at Adrenergic and Dopamine Receptors. Agonist activity at Alpha1A, Alpha2A, D1, and D2 receptors was determined using a FLIPR Ca^2+ flux assay at WuXi AppTec (Hong Kong) Limited according to their standard protocols. Briefly, stably transfected cells expressing the receptor of interest were grown and plated in a 384 well plate and incubated at 37° C. and 5% CO2 overnight. A solution of 250 mM probenecid in 1 mL FLIPR assay buffer was prepared fresh. This was combined with a fluorescent dye (Fluo-4 Direct™) to make a final assay concentration of 2.5 mM. Compounds were diluted 1:3.16 for 10 points and 750 nL was added to a 384 well compound plate using ECHO along with 30 μL assay buffer. The fluorescent dye was then added to the assay plate along with assay buffer to a final volume of 40 μL. The cell plate was incubated for 50 min at 37° C. and 5% CO2 and placed into the FLIPR Tetra along with the compound plate. 10 μL of references and compounds were then transferred from the compound plate into the cell plate and the fluorescent signal was read.

D1 dopamine receptor = target: T2, D1 dopamine receptor (Homo sapiens, UniProt P21728); test: Ca2+ flux functional assay at D1; type: cell-based; conditions: agonist, max dose, read-out: D1 % Act @ Max Dose
T2 construct: expressed in transfected cells
Procedure: as §1, §2

C57BL/6 mice = test: Mouse head twitch response (HTR) assay (observer-counted); type: in vivo; conditions: for efficacy in HTR assay: maximal effect
5-HT2C receptor = target: T3, 5-HT2C receptor (Homo sapiens, UniProt P28335); test: cell-based; conditions: agonist, Ca2+ flux, Eurofins DiscoverX protocol, max dose; read-out: 5-HT2C % Act @ Max Dose
T3 sequence (P28335 33-458): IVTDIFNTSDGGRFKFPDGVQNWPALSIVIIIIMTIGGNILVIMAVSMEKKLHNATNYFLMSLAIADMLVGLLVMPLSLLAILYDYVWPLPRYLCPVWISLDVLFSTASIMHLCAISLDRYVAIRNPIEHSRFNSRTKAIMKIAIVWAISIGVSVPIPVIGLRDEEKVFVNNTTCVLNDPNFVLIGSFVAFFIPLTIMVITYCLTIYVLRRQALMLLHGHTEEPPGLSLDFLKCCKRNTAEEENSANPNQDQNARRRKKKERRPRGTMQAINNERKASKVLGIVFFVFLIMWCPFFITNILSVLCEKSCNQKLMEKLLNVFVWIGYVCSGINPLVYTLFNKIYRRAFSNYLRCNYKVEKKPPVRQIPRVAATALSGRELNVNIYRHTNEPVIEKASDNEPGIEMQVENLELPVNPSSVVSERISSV

[2] = SC, most efficacious dose 3.2 mg/kg

T2 sequence (P21728 whole entry): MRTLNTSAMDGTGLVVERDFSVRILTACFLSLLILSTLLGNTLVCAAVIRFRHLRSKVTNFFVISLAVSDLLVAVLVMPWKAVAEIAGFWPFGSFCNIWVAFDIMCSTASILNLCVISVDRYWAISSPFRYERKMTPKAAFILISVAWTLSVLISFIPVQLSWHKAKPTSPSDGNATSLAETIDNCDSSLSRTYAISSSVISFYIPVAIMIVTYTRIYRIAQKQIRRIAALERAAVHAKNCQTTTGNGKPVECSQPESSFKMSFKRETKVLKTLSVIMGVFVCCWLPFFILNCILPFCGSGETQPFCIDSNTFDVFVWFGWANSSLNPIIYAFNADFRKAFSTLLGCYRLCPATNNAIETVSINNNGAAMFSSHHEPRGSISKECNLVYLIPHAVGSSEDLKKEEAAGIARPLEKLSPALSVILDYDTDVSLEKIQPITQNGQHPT

Compound | Emax [1] [%] | Emax (D1 dopamine receptor) [%] | maximal efficacy at Alpha1A [1] | ED50 (HTR) (C57BL/6 mice; SC, 20 min, curve fit poor in some cases) [mg/kg] | Emax, HTR/20 min (C57BL/6 mice; SC, curve fit poor in some cases) [HTR/20 min] | efficacy in HTR assay (C57BL/6 mice; SC) | # HTR/20 min at Most Efficacious Dose (C57BL/6 mice; [2]) [HTR/20 min] | Emax (5-HT2C receptor) [%] | head twitch response (C57BL/6 mice; 20 min observation, FIG. 1) | HTR at most efficacious dose (bound) (C57BL/6 mice; SC, 20 min) [HTR] | # HTR/20 min at Most Efficacious Dose (C57BL/6 mice; SC, most efficacious dose 0.32 mg/kg) [HTR/20 min]
CCN(CC)C(=O)[C@@H]1C=C2c3cccc4[nH]cc(c34)C[C@H]2N(C)C1 [LSD, lysergic acid diethylamide, reference compound] | 60.3 | 94.9 | – | – | – | – | – | – | – | – | –
CCN(CC)C(=O)[C@@H]1C=C2c3cccc4[nH]cc(c34)C[C@H]2N(CCc2ccccc2OC)C1 [Compound 11, (6aR,9R)—N,N-diethyl-7-(2-methoxyphenethyl)-4,6,6,7,8,9-hexahydroindolo[4,3-fg]quinoline-9-carboxamide] | – | – | very low efficacy agonists | 2.205 | 19.79 | low efficacy | 12.0 | – | – | – | –
CCCN1C[C@H](C(=O)N2[C@@H](C)C[C@@H]2C)C=C2c3cccc4[nH]cc(c34)C[C@H]21 [Compound 4, ((2S,4S)-2,4-dimethylazetidin-1-yl)((6aR,9R)-7-propyl-4,6,6a,7,8,9-hexahydroindolo[4,3-fg]quinolin-9-yl)methanone] | 119 | 114 | substantially higher maximal efficacy | – | – | less efficacious than its N-methyl counterpart compound Int11; also recorded: lower efficacy than analogous compounds bearing other amide substituents | – | 111 | – | – | –
CCCN1C[C@H](C(=O)N(CC)CC)C=C2c3cccc4[nH]cc(c34)C[C@H]21 [Compound 1, (6aR,9R)—N,N-diethyl-7-propyl-4,6,6a,7,8,9-hexahydroindolo[4,3-fg]quinoline-9-carboxamide] | 80.6 | 109 | substantially higher maximal efficacy | – | – | – | – | 107 | robust and dose-dependent HTR | > 15 | –
CCCN1C[C@H](C(=O)N[C@H](C)CC)C=C2c3cccc4[nH]cc(c34)C[C@H]21 [Compound 3, (6aR,9R)—N—((R)-sec-butyl)-7-propyl-4,6,6a,7,8,9-hexahydroindolo[4,3-fg]quinoline-9-carboxamide] | 125 | 121 | substantially higher maximal efficacy | – | – | – | – | 119 | – | > 15 | 27.0
CCN(CC)C(=O)[C@@H]1C=C2c3cccc4[nH]cc(c34)C[C@H]2N(CCCF)C1 [Compound 2, (6aR,9R)—N,N-diethyl-7-(3-fluoropropyl)-4,6,6a,7,8,9-hexahydroindolo[4,3-fg]quinoline-9-carboxamide] | 110 | 114 | substantially higher maximal efficacy | – | – | – | – | 105 | – | > 15 | –
CCN(CC)C(=O)[C@@H]1C=C2c3cccc4[nH]cc(c34)C[C@H]2N(Cc2ccccc2OC)C1 [Compound 10, (6aR,9R)—N,N-diethyl-7-(2-methoxybenzyl)-4,6,6a,7,8,9-hexahydroindolo[4,3-fg]quinoline-9-carboxamide] | 26.6 | 114 | very low efficacy agonists | – | – | low efficacy | 6.5 | 13.4 | – | – | –
CCCN1C[C@H](C(=O)NC(CC)CC)C=C2c3cccc4[nH]cc(c34)C[C@H]21 [Compound 6, (6aR,9R)—N-(pentan-3-yl)-7-propyl-4,6,6a,7,8,9-hexahydroindolo[4,3-fg]quinoline-9-carboxamide] | – | 93.1 | substantially higher maximal efficacy | – | – | – | – | 117 | – | > 15 | –
